Assay results: PubChem BioAssay (NCI)
Where “and” joins values, the source holds several entries; their conditions need not be identical. Equal entries are not always repeated.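 The compound was tested at five concentrations on cells cultured in 96-well plates, with a 48-hour exposure period. GI50: concentration for 50% inhibition of growth. At the TGI there is no net growth.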 Calls of active or inactive are those of the source. No stated cut-off is given here; in the data, active means GI50 below about 0.43 µM; inactive means the rest.

Experiments:
Test in all cases: inhibition of tumour cell growth, NCI panel, 48 h
[1] = tested on: MOLT-4 leukemia
[2] = tested on: RPMI-8226 leukemia
[3] = tested on: SR leukemia
[4] = tested on: UACC-62 melanoma
[5] = tested on: 786-0 renal
[6] = tested on: A498 renal
[7] = tested on: A549 NSCLC
[8] = tested on: ACHN renal
[9] = tested on: BT-549 breast
[10] = tested on: CCRF-CEM leukemia
[11] = tested on: COLO 205 colon
[12] = tested on: DU-145 prostate
[13] = tested on: EKVX NSCLC
[14] = tested on: HCC-2998 colon
[15] = tested on: HCT-116 colon
[16] = tested on: HCT-15 colon
[17] = tested on: HL-60(TB) leukemia
[18] = tested on: HOP-62 NSCLC
[19] = tested on: HOP-92 NSCLC
[20] = tested on: HS 578T breast
[21] = tested on: HT29 colon
[22] = tested on: IGROV1 ovarian
[23] = tested on: K-562 leukemia
[24] = tested on: KM12 colon
[25] = tested on: LOX IMVI melanoma
[26] = tested on: M14 melanoma
[27] = tested on: MALME-3M melanoma
[28] = tested on: MDA-MB-231 breast
[29] = tested on: MDA-MB-435
[30] = tested on: NCI-H226 lung
[31] = tested on: NCI-H23 lung
[32] = tested on: NCI-H460 lung
[33] = tested on: NCI-H522 lung
[34] = tested on: NCI/ADR-RES ovarian
[35] = tested on: OVCAR-3 ovarian
[36] = tested on: OVCAR-4 ovarian
[37] = tested on: OVCAR-5 ovarian
[38] = tested on: OVCAR-8 ovarian
[39] = tested on: PC-3 prostate
[40] = tested on: RXF 393 renal
[41] = tested on: SF-268 CNS
[42] = tested on: SF-295 CNS
[43] = tested on: SF-539 CNS
[44] = tested on: SK-MEL-2 melanoma
[45] = tested on: SK-MEL-28 melanoma
[46] = tested on: SK-MEL-5 melanoma
[47] = tested on: SK-OV-3 ovarian
[48] = tested on: SN12C renal
[49] = tested on: SNB-19 CNS
[50] = tested on: SNB-75 CNS
[51] = tested on: SW-620 colon
[52] = tested on: T-47D breast
[53] = tested on: TK-10 renal
[54] = tested on: U251 CNS
[55] = tested on: UACC-257 melanoma
[56] = tested on: UO-31 renal
[57] = tested on: CAKI-1 renal
[58] = tested on: MCF7 breast

With `O=c1[nH]c(C2CCCCC2)nc2c(Cl)cccc12` the outcome [1] was “inactive”, the outcome [2] was “inactive” and the outcome [3] was “inactive”.
For `CCOP(=O)(C/C=C\Cn1cnc(C(N)=O)c1N)OCC`, the GI50 [4] was 25700 nM and the TGI [4] was 75800 nM.
Work on `C=C1C(=O)O[C@H]2[C@H]1CCC(/C=N/c1ncc(Br)cc1N)=C\CC[C@@]1(C)O[C@@H]21` yielded a GI50 [5] of 1720 nM, a TGI [5] of 3520 nM and a GI50 [6] of 4820 nM. For the same compound, the TGI [6] was 17500 nM, the GI50 [7] was 10900 nM and the TGI [7] was 25300 nM. It also gave a GI50 [8] of 1410 nM, a TGI [8] of 4900 nM and a GI50 [9] of 1820 nM. For the same compound, the TGI [9] was 6490 nM, the GI50 [10] was 429 nM and the TGI [10] was 10800 nM. It also gave a GI50 [11] of 1650 nM, a TGI [11] of 3590 nM and a GI50 [12] of 1250 nM. The TGI [12] was 3220 nM, the GI50 [13] was 2360 nM and the TGI [13] was 11800 nM. It also gave a GI50 [14] of 3560 nM, a TGI [14] of 12900 nM and a GI50 [15] of 1060 nM. It also gave a TGI [15] of 2460 nM, a GI50 [16] of 1490 nM and a TGI [16] of 4010 nM. For the same compound, the GI50 [17] was 494 nM, the TGI [17] was 3290 nM and the GI50 [18] was 10800 nM. For the same compound, the TGI [18] was 24000 nM, the GI50 [19] was 1310 nM and the TGI [19] was 3740 nM. It also gave a GI50 [20] of 5650 nM, a TGI [20] of 40100 nM and a GI50 [21] of 1930 nM. The TGI [21] was 5520 nM, the GI50 [22] was 2110 nM and the TGI [22] was 7440 nM. The GI50 [23] was 2110 nM, the TGI [23] was over 100000 nM and the GI50 [24] was 5070 nM. For the same compound, the TGI [24] was 20200 nM, the GI50 [25] was 1710 nM and the TGI [25] was 3460 nM. The GI50 [26] was 1890 nM, the TGI [26] was 5360 nM and the GI50 [27] was 1550 nM. For the same compound, the TGI [27] was 3600 nM, the GI50 [28] was 1380 nM and the TGI [28] was 3460 nM. For the same compound, the GI50 [29] was 2290 nM, the TGI [29] was 7510 nM and the GI50 [1] was 2360 nM. For the same compound, the TGI [1] was 9330 nM, the GI50 [30] was 2880 nM and the TGI [30] was 11700 nM. The GI50 [31] was 3180 nM, the TGI [31] was 17200 nM and the GI50 [32] was 5810 nM. For the same compound, the TGI [32] was 22300 nM, the GI50 [33] was 781 nM and the TGI [33] was 2600 nM. It also gave a GI50 [34] of 3110 nM, a TGI [34] of 21900 nM and a GI50 [35] of 1050 nM. For the same compound, the TGI [35] was 2290 nM, the GI50 [36] was 2430 nM and the TGI [36] was 11600 nM. For the same compound, the GI50 [37] was 3200 nM, the TGI [37] was 11500 nM and the GI50 [38] was 2980 nM. For the same compound, the TGI [38] was 10900 nM, the GI50 [39] was 2260 nM and the TGI [39] was 11100 nM. For the same compound, the GI50 [2] was 1130 nM, the TGI [2] was 5010 nM and the GI50 [40] was 1380 nM. The TGI [40] was 2900 nM, the GI50 [41] was 2860 nM and the TGI [41] was 11100 nM. The GI50 [42] was 10400 nM, the TGI [42] was 24300 nM and the GI50 [43] was 2060 nM. The TGI [43] was 6820 nM, the GI50 [44] was 1960 nM and the TGI [44] was 4870 nM. For the same compound, the GI50 [45] was 2370 nM, the TGI [45] was 6070 nM and the GI50 [46] was 1550 nM. It also gave a TGI [46] of 3010 nM, a GI50 [47] of 16300 nM and a TGI [47] of 95200 nM. For the same compound, the GI50 [48] was 1780 nM, the TGI [48] was 5410 nM and the GI50 [49] was 10100 nM. For the same compound, the TGI [49] was 24700 nM, the GI50 [50] was 3380 nM and the TGI [50] was 18000 nM. For the same compound, the GI50 [3] was 1320 nM, the TGI [3] was 7680 nM and the GI50 [51] was 1330 nM. It also gave a TGI [51] of 3300 nM, a GI50 [52] of 1550 nM and a TGI [52] of 4900 nM. The GI50 [53] was 1600 nM, the TGI [53] was 3190 nM and the GI50 [54] was 5060 nM. It also gave a TGI [54] of 18100 nM, a GI50 [55] of 1800 nM and a TGI [55] of 4450 nM. For the same compound, the GI50 [4] was 1870 nM, the TGI [4] was 4220 nM and the GI50 [56] was 1280 nM. For the same compound, the TGI [56] was 2630 nM.
For `COc1cccc(OCCCN)c1-c1cc(Nc2cnc(C#N)cn2)n[nH]1`, the GI50 [5] was 3.28 nM, the TGI [5] was 706 nM and the GI50 [6] was 4.76 nM. The TGI [6] was 230 nM and < 26.9 nM, the GI50 [7] was 35 nM and 45.2 nM and the TGI [7] was 15100 nM. For the same compound, the GI50 [8] was 3.32 nM, the TGI [8] was 14.6 nM and the GI50 [9] was 79.7 nM and 85.6 nM. For the same compound, the TGI [9] was 8200 nM, the GI50 [57] was 405 nM and 45.5 nM and the TGI [57] was 11900 nM. For the same compound, the TGI [10] was over 73000 nM, the GI50 [11] was 41.9 nM and 67.7 nM and the TGI [11] was 11200 nM. The GI50 [12] was 7.69 nM and 13.1 nM, the TGI [12] was 15400 nM and the TGI [13] was 45600 nM. For the same compound, the GI50 [14] was 4.84 nM, the TGI [14] was 11200 nM and the GI50 [15] was 105 nM and 236 nM. The TGI [15] was 12900 nM, the GI50 [16] was 58.5 nM and 70 nM and the TGI [16] was 14000 nM. The GI50 [17] was 8.77 nM and 23.1 nM, the TGI [17] was 1140 nM and the GI50 [18] was 13.6 nM and 30.3 nM. For the same compound, the TGI [18] was 13000 nM, the GI50 [19] was under 16.6 nM and the TGI [19] was 8760 nM. The GI50 [21] was 28.9 nM and 23.8 nM, the TGI [21] was 1280 nM and the TGI [22] was 15600 nM. The GI50 [23] was 4.44 nM, the TGI [23] was 12800 nM and the GI50 [24] was 17.9 nM and 17 nM. The TGI [24] was 11100 nM, the GI50 [25] was 16.6 nM and 25.4 nM and the TGI [25] was 9070 nM. For the same compound, the GI50 [26] was 2.76 nM, the TGI [26] was 13.5 nM and the TGI [27] was 16100 nM. The GI50 [58] was 3.04 nM, the TGI [58] was 18200 nM and the GI50 [28] was 933 nM. It also gave a TGI [28] of 11900 nM, a GI50 [29] of 4.23 nM and a TGI [29] of 1230 nM. The GI50 [1] was 3.91 nM, the TGI [1] was 5690 nM and the GI50 [30] was 2230 nM. The TGI [30] was 8390 nM, the GI50 [31] was 4.79 nM and < 10.9 nM and the TGI [31] was 8880 nM. For the same compound, the GI50 [32] was 48.7 nM and 43.6 nM, the TGI [32] was 12600 nM and the GI50 [33] was 261 nM and 45.4 nM. For the same compound, the TGI [33] was 2060 nM, the GI50 [34] was 71 nM and 54 nM and the TGI [34] was 17300 nM. For the same compound, the GI50 [35] was 7.61 nM and < 15.5 nM, the TGI [35] was 11400 nM and the GI50 [36] was 7.93 nM and < 24.9 nM. The TGI [36] was 14900 nM, the GI50 [37] was 38.1 nM and 43 nM and the TGI [37] was 15200 nM. For the same compound, the GI50 [38] was 5.91 nM, the TGI [38] was 1440 nM and the GI50 [39] was 2410 nM. For the same compound, the TGI [39] was 21500 nM, the GI50 [2] was 197 nM and 48.9 nM and the TGI [2] was 7590 nM. For the same compound, the GI50 [40] was 4.96 nM, the TGI [40] was 61.6 nM and 156 nM and the GI50 [41] was 87.1 nM and 75.4 nM. For the same compound, the TGI [41] was 13200 nM, the GI50 [42] was 3.7 nM and the TGI [42] was 13400 nM. For the same compound, the GI50 [43] was 3.66 nM, the TGI [43] was 62.7 nM and 120 nM and the GI50 [44] was 4.76 nM. The TGI [44] was 64.4 nM, the GI50 [45] was 955 nM and 3110 nM and the TGI [45] was 17400 nM. For the same compound, the GI50 [46] was 31.8 nM and 22.4 nM, the TGI [46] was 1590 nM and the GI50 [47] was 4.74 nM. The TGI [47] was 7020 nM, the GI50 [48] was 189 nM and 130 nM and the TGI [48] was 10800 nM. The GI50 [49] was 18.8 nM and 25.6 nM, the TGI [49] was 19500 nM and the GI50 [50] was 2070 nM. It also gave a TGI [50] of 13900 nM, a GI50 [3] of 3.2 nM and a TGI [3] of 1250 nM. The GI50 [51] was 57.3 nM and 54 nM, the TGI [51] was 12000 nM and the GI50 [52] was 7910 nM. The TGI [52] was 24000 nM, the GI50 [53] was 6.5 nM and the TGI [53] was 417 nM. The GI50 [54] was 75.9 nM and 56.9 nM, the TGI [54] was 14400 nM and the GI50 [55] was 142 nM. The TGI [55] was 13100 nM, the GI50 [4] was 23.1 nM and the GI50 [56] was 27.9 nM and 32.1 nM.
